Laboratory results taken from patent US11549123B2, “Plant EPSP synthases and methods of use” (PIONEER HI-BRED INTERNATIONAL, INC., priority 2015, dated 2023).

What was measured:
[1] = tested on: Helianthus annuus EPSPS with 868-H6 mutations, SEQ ID NO:10; experiment: EPSPS substrate saturation kinetics, sunflower H6; type: biochemical; settings: PEP
Method: (§1) EPSPS activity was determined by quantifying the phosphate generated from the EPSPS reaction. Release of inorganic phosphate was coupled to reaction with 2-amino-6-mercapto-7-methylpurine ribonucleoside, catalyzed by purine-nucleoside phosphorylase (M R Webb, Proc. Natl. Acad. Sci. 89:4884-4887, 1992). The absorbance change that occurs was monitored at 360 nm, where the extinction is 11,200 M^−1 cm^−1, with a Spectramax plate reader (Molecular Devices). To determine kinetic parameters, the varied substrate was present at seven concentrations (the eighth being the blank, containing no substrate) ranging from 4 to 400 uM and the unvaried substrate present at saturation. […] Reactions were monitored with a Spectramax plate reader. […] KI was then calculated from the following form of the Michaelis-Menten equation for competitive inhibition: KI=KM[I]/(KM app−KM) KM approximates the dissociation constant of the enzyme-substrate complex while kcat is the rate of conversion of substrate to product when the substrate concentration is saturating. kcat/KM is a widely accepted parameter for catalytic efficiency when substrate concentration is low (˜KM). […] The parameter kcat/KM×KI is used to quantify both catalytic efficiency and insensitivity and thus the overall fitness of the enzyme.
(§2) Native EPSPS amino acid sequences of rice (Oryza sativa) (SEQ ID NO:7), sorghum (Sorghum halepense) (SEQ ID NO:8), and sunflower (Helianthus annus) (SEQ ID NO:9) including the chloroplast transit peptide sequences were assembled and analyzed for mapping the corresponding amino acid mutations from the maize 868-H6. […]
(§3) ChloroP Prediction Server (Emanuelsson, O. et al. 1999. Protein Sci. 8(5):978-84) was used to approximate the amino terminus of the mature EPSPS proteins. […] The synthetic genes were cloned into a plasmid vector and expressed, purified and analyzed as described in Example 1.

[2] = tested on: Type II EPSPS from Agrobacterium sp. strain CP4; settings: read-out: KM for PEP; U.S. Pat. No. 5,633,435; cited from earlier work
[3] = target: T1, Zea mays EPSPS variant Zm-H6 (868-H6) with K246G (H6-K246G) (Zea mays, UniProt O24566, A1R/A3W/A415G/A71Q/D401G/E301S/E390G/G101A/I207L/K245G/K83R/L97C/T278A/T360S/T440Q/V437R); experiment: Rapid two-rate method for (kcat/KM)*KI, H6-K246G; type: biochemical; settings: [E] 0.07 uM, [Gly] 1000 uM
T1 construct: 868-H6 plus K246G; E. coli BL21(DE3), Ni-NTA purified
T1 sequence (O24566 with tags, fused parts or gaps A1R/A3W/A71Q/K83R/L97C/G101A/I207L/K245G/T278A/E301S/T360S/E390G/D401G/A415G/V437R/T440Q): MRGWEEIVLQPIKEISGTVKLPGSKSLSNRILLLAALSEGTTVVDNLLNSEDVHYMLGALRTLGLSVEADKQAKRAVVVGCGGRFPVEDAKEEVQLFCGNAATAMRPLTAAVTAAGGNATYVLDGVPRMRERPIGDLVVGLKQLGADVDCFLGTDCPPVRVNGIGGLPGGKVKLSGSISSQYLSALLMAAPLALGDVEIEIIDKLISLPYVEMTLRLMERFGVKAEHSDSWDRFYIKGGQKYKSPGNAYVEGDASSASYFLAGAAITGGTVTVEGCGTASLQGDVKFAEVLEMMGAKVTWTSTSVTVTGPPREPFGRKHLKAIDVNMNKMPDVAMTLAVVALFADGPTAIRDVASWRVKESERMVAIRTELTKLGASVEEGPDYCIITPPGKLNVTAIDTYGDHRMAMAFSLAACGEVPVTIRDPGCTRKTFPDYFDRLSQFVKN
Description: There are several practical considerations for accurately estimating (kcat/KM)*KI with the rapid method. […] 2) The inhibitor concentration must be adjusted so as to obtain a degree of inhibition that minimally amplifies the error in the term v0-vi in Equation 3. If inhibition is too little, v0-vi will be small, and the error in the multiplier vi×v0/(v0-vi) will be large. […] 3) Substrate concentration should be set at the approximate KM of the parental variant(s), subject to the sensitivity of the assay. High substrate concentration obscures sensitivity to the inhibitor and reduces stringency for capturing improvements in KM. Depending on the necessity for speed, there exists opportunity for customizing enzyme and inhibitor concentrations. […] The rapid method was repeated for those and obtained data that correlated better with data obtained by substrate saturation analysis. For screening purposes however, that correlation step is not necessary. Conditions can be set so that variants with a pre-determined minimal fitness level are accurately quantified.
In Table 15, parameters above the heavy line for the rapid method were obtained under standard conditions. For variants shown below the heavy line, the rapid analysis was repeated with enzyme or glyphosate concentrations adjusted as needed to generate sufficient signal within the limits for linear initial rates.

[4] = target: Helianthus annuus EPSPS with 868-H6 mutations, SEQ ID NO:10 (Helianthus annuus, UniProt A0A251S0N3, A489G/D475G/E144Q/E375S/E464G/G175A/L171C/Q70R/R514Q/S352A/T434S/T72W/V156R/V281L/V511R); experiment: EPSPS substrate saturation kinetics, sunflower H6; type: biochemical
Method: as §1, §2, §3

Sequence of Helianthus annuus EPSPS with 868-H6 mutations, SEQ ID NO:10 (Helianthus annuus, UniProt A0A251S0N3, A489G/D475G/E144Q/E375S/E464G/G175A/L171C/Q70R/R514Q/S352A/T434S/T72W/V156R/V281L/V511R) (A0A251S0N3 67-518 with the stated changes): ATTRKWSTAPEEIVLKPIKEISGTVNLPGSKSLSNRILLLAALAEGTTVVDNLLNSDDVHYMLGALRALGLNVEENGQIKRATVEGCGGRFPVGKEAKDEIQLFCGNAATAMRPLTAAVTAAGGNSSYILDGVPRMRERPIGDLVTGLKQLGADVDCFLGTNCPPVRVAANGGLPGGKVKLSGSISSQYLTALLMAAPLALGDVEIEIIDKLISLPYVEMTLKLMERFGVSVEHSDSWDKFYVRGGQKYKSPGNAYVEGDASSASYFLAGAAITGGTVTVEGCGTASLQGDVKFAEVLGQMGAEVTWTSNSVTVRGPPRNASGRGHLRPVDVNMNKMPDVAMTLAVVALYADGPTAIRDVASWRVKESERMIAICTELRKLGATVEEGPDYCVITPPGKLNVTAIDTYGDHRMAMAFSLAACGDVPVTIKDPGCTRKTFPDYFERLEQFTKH

C=C(OP(=O)(O)O)C(=O)O [PEP, phosphoenolpyruvate]
kcat/KM relative to maize H6 [1]: 38%
Km [2]: 12 µM

O=C(O)CNCP(=O)(O)O [glyphosate, N-phosphonomethylglycine]
(kcat/KM)*KI [3]: 3495
Ki [4]: 1580 µM
(kcat/KM)*KI ([4]; PEP as substrate, glyphosate as inhibitor): 8960
